Reference: patent publication US10744141B2, “Compositions and methods for treating cancer” (CASE WESTERN RESERVE UNIVERSITY, priority 2015, dated 2020)
“Also recorded” adds a separate entry of the source.

What was measured:
MOLT4 = assay: Western blot time course of Y307 dephosphorylation and target engagement; type: cell-based; conditions: MOLT4, increasing doses, various timepoints
Procedure: FIG. 3 illustrates a western blot analysis showing the kinetics of Y307 dephosphorylation and target engagement induced by Compound 1.
To evaluate the kinetics of Y307 dephosphorylation in the context of SMAP-mediated phosphatase activation, a time course study was conducted in the c-Myc driven T-ALL cell line MOLT4 with increasing doses of Compound 1 at various timepoints. PP2A has been well established to dephosphorylate the c-Myc proto-oncogene via dephosphorylation at Serine62 as a priming event for proteasome-mediated degradation, and prior work in the lab has validated Compound 1 mediates c-Myc proteolysis in in vitro models of c-Myc driven disease.

PP2A A-C dimer = PP2A A-C dimer (Homo sapiens, UniProt P30153+P67775); assay: Radiolytic MS footprinting of PP2A A-C dimer with and without Compound 1
Text: FIG. 2 is a model illustrating a visual representation of conformational changes in the PP2A A-C dimer as detected by radiolytic MS footprinting.
In order to elucidate the conformational changes in PP2A induced by SMAPs, we conducted structural mass spectrometry using radiolytic MS footprinting, a novel approach to probe the structural alterations of complexes such as PP2A. In these experiments, hydroxyl radicals are generated by an X-ray beam and oxidatively modify solvent-exposed amino acid side chains. Areas of a protein that are solvent inaccessible are spared these modifications and can be considered protected regions. Compared to the PP2A A-C dimer alone, addition of Compound 1 induced significant changes in solvent exposure in both the A and C subunits, indicating a conformational change (FIG. 2).

A549 = assay: MTT assay with Compound 2/Dasatinib dose escalation combinations; type: cell-based; conditions: dose escalation of both drugs in parallel
SRC = assay: Time course phosphoproteomics with KSEA, SRC output; type: cell-based; conditions: H358 cells, 17.5 μM DT-061, relative to DMSO at the same time-point
Procedure: (§1) H358 cells (ATCC) were cultured at 37° C. and 5% CO2 using RPMI media supplemented with 10% FBS and 0.5% penicillin/streptomycin. Per condition, 20 million cells were treated with the appropriate reagent and harvested at the stated time point. The following are the doses used: 17.5 μM DT-061, 1 μM AZD6244, and 0.25 μM MK2206. Cell pellets were then stored at −80° C. for short term. To extract proteins, the cells were pulse sonicated in 2% SDS buffer over ice and in the presence of protease and phosphatase inhibitors. Cysteine amino acid residues were then reduced and alkylated. 800 μg of protein per sample was then digested with Lys-C and Trypsin overnight at 37° C. […]
(§2) The phospho-enriched peptides were analyzed by LC-MS/MS using a LTQ-Orbitrap Velos mass spectrometer (Thermo Scientific, Calif.) equipped with a nanoAcquity™ Ultra-high pressure liquid chromatography system (Waters, Mass.). […] The LC-MS/MS raw files were imported and analyzed by the Rosetta Elucidator™ and Mascot programs to sequence the peptides and to identify the parent protein.
(§3) The R programming language was used to generate the data and heat maps. […] Kinase-substrate relationships were determined from the PhosphoSitePlus database. […] The fold change (FC) for each identified hit was then calculated by taking the median peptide intensity with treatment, divided by median peptide intensity with DMSO. […]

ERK = assay: Time course phosphoproteomics with KSEA, ERK output; type: cell-based; conditions: H358 cells, 17.5 μM DT-061, relative to DMSO at the same time-point
Procedure: as §1, §2, §3

[1] = C-terminal tail peptide [303-309]/C, residue Y or F
[2] = catalytic subunit peptide [178-186]/C, residue H179
[3] = peptide [198-217]/C, residue W200
[4] = peptide [200-217]/C, residue W209
[5] = peptide [200-223]/C, residue W200
[6] = peptide [200-223]/C, residue W209
[7] = peptide [200-223]/C, residue Y218
[8] = peptide [259-265]/C, residue Y265
[9] = peptide [279-286]/C, residue K283
[10] = peptide [279-286]/C, residue Y284

Sequence of PP2A A-C dimer (P30153 whole entry): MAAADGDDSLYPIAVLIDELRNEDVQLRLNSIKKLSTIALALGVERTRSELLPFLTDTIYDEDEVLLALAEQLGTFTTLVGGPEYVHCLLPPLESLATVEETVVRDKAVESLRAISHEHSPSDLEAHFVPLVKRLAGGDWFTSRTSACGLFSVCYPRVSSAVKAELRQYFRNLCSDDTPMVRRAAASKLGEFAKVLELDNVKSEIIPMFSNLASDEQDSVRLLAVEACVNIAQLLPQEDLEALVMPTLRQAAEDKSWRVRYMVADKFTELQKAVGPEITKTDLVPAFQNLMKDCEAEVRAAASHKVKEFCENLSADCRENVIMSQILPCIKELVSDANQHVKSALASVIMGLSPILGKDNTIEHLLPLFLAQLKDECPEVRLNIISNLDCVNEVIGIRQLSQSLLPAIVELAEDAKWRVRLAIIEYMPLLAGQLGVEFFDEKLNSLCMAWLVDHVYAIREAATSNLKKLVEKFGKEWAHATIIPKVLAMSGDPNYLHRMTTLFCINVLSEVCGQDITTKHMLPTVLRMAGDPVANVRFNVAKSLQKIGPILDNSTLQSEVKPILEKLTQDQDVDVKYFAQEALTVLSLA
Sequence of PP2A A-C dimer (P67775 whole entry): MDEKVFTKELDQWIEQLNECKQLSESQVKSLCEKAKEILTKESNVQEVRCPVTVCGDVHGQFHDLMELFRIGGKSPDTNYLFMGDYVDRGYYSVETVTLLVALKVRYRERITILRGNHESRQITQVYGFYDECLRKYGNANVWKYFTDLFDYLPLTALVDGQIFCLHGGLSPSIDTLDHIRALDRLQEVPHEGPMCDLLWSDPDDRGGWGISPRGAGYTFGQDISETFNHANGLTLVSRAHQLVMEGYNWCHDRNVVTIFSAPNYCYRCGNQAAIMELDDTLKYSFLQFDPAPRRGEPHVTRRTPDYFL

O=S(=O)(NC[C@H](O)CN1c2ccccc2CCc2ccccc21)c1ccc(OC(F)(F)F)cc1 [Compound 1]
Parp cleavage (MOLT4): resulting in Parp cleavage in a similar time-dependent manner | Y307 dephosphorylation kinetics (MOLT4): Y307 dephosphorylation occurs as a secondary event to the initial PP2A activation; also recorded: precede Y307 dephosphorylation | dephosphorylation of c-Myc (MOLT4): very rapid dephosphorylation of c-Myc | Modification Rate, S^−1 + Ligand (PP2A A-C dimer; [1]): 0.56 ± 0.06 S^−1 | Protection factor (PP2A A-C dimer; [1]): 12.0 | decrease in solvent accessibility of the C terminal tail of the catalytic subunit (PP2A A-C dimer; Compound 1 treatment compared to control): 12 fold | Modification Rate, S^−1 + Ligand (PP2A A-C dimer; [2]): 2.4 ± 0.2 S^−1 | Protection factor (PP2A A-C dimer; [2]): 7.2 | Modification Rate, S^−1 + Ligand (PP2A A-C dimer; [3]): 1.8 ± 0.2 S^−1 | Protection factor (PP2A A-C dimer; [3]): 6.2 | Modification Rate, S^−1 + Ligand (PP2A A-C dimer; [4]): 2.3 ± 0.1 S^−1 | Protection factor (PP2A A-C dimer; [4]): 4.6 | Modification Rate, S^−1 + Ligand (PP2A A-C dimer; [5]): 1.4 ± 0.1 S^−1 | Protection factor (PP2A A-C dimer; [5]): 4.6 | Modification Rate, S^−1 + Ligand (PP2A A-C dimer; [6]): 2.1 ± 0.1 S^−1 | Protection factor (PP2A A-C dimer; [6]): 5.4 | Modification Rate, S^−1 + Ligand (PP2A A-C dimer; [7]): 0.31 ± 0.03 S^−1 | Protection factor (PP2A A-C dimer; [7]): 0.9 | Modification Rate, S^−1 + Ligand (PP2A A-C dimer; [8]): 0.12 ± 0.001 S^−1 | Protection factor (PP2A A-C dimer; [8]): 4.8 | Modification Rate, S^−1 + Ligand (PP2A A-C dimer; [9]): 0.14 ± 0.01 S^−1 | Protection factor (PP2A A-C dimer; [9]): 15 | Modification Rate, S^−1 + Ligand (PP2A A-C dimer; [10]): 0.13 ± 0.01 S^−1 | Protection factor (PP2A A-C dimer; [10]): 6.1

O=S(=O)(N[C@@H]1CCCC(N2c3ccccc3CCc3ccccc32)[C@H]1O)c1ccc(OC(F)(F)F)cc1 (stereo partly drawn) [Compound 2]
decrease of the IC50 (GI50) of Compound 2 (A549): nearly two-fold

O=S(=O)(N[C@@H]1CCC[C@H](N2c3ccccc3Oc3ccccc32)[C@H]1O)c1ccc(OC(F)(F)F)cc1 [DT-061]
SRC activity output (KSEA) (SRC): minimal changes in SRC output | ERK activity output (KSEA) (ERK): limited suppression of ERK output
